Experimental data taken from ChEMBL document CHEMBL3880410, “Novel oxabispidine compounds and their use in the treatment of cardiac arrhythmias” (2009).

test system: Cavia porcellus; assay: Anti-cardiac arrhythmia activity in anaesthetised guinea pig assessed as cumulative dose inducing prolongation of monophasic action potential duration by 10% from baseline administered as first dose infusion in 0.2 mL/kg into jugular vein catheter for 30 secs followed by next dosing after 5 mins for 6 to 10 consecutive times by electrophysiology based assay; format: functional

| SMILES | D10 [mg/kg] |
| --- | --- |
| N#Cc1ccc(OCCN2CC3CN(CCCNS(=O)(=O)c4ccc(F)cc4F)CC(C2)O3)cc1 | >5.5 |
| CN(CCN1CC2CN(CCCOc3ccc(F)cc3)CC(C1)O2)S(=O)(=O)c1ccc(C#N)cc1 | >5.5 |
| N#Cc1ccc(CNS(=O)(=O)CCN2CC3CN(Cc4ccccc4C#N)CC(C2)O3)cc1 | >5.5 |
| N#Cc1ccc(S(=O)(=O)NCCN2CC3CN(Cc4ccc(OC(F)F)cc4)CC(C2)O3)cc1 | >5.5 |
| N#Cc1ccc(OCCN2CC3CN(CCCNS(=O)(=O)Cc4ccccc4)CC(C2)O3)cc1 | >5.5 |
| N#Cc1ccc(CNS(=O)(=O)CCN2CC3CN(CCc4ccc(F)cc4)CC(C2)O3)cc1 | >5.5 |
| O=S(=O)(NCCN1CC2CN(Cc3ccccc3)CC(C1)O2)c1ccc(F)cc1 | >5.5 |
| N#Cc1ccc(OCCCN2CC3CN(CCNS(=O)(=O)c4ccc5c(c4)CCO5)CC(C2)O3)cc1 | >5.5 |
| Cn1cnc(S(=O)(=O)NCCN2CC3CN(CCOc4ccc(C#N)cc4)CC(C2)O3)c1 | >5.5 |
| N#Cc1ccc(S(=O)(=O)NCCN2CC3CN(CCc4ccc(F)c(F)c4)CC(C2)O3)cc1 | >5.5 |
| N#Cc1ccc(OCCN2CC3CN(CCNS(=O)(=O)c4ccccc4C#N)CC(C2)O3)cc1 | >5.5 |
| Cc1cc(C)n(CCN2CC3CN(CCNS(=O)(=O)c4ccc(C#N)cc4)CC(C2)O3)n1 | >5.5 |
| N#Cc1ccc(S(=O)(=O)NCCN2CC3CN(CCOc4ccc(C#N)cc4F)CC(C2)O3)cc1 | >5.5 |
| N#Cc1ccc(OCCN2CC3CN(CCNS(=O)(=O)c4ccc5c(c4)CCO5)CC(C2)O3)c(F)c1 | >5.5 |
| CN(CCN1CC2CN(CCOc3c(F)cccc3F)CC(C1)O2)S(=O)(=O)c1ccc(C#N)cc1 | >5.5 |
| O=S(=O)(NCCN1CC2CN(CCc3ccccc3F)CC(C1)O2)c1ccc(F)cc1 | >5.5 |
| N#Cc1ccc(S(=O)(=O)NCCN2CC3CN(Cc4c[nH]c5ccccc45)CC(C2)O3)cc1 | >5.5 |
| N#Cc1ccc(CN2CC3CN(CCNS(=O)(=O)c4ccc(C#N)cc4)CC(C2)O3)cc1 | >5.5 |
| CN(CCN1CC2CN(Cc3ccc(C#N)cc3)CC(C1)O2)S(=O)(=O)c1ccc(C#N)cc1 | >5.5 |
| N#Cc1ccc(S(=O)(=O)NCCN2CC3CN(CCCOc4ccc(F)cc4)CC(C2)O3)cc1 | >5.5 |
| CN(CCN1CC2CN(CCc3ccc(F)c(F)c3)CC(C1)O2)S(=O)(=O)c1ccc(C#N)cc1 | >5.5 |
| N#Cc1ccc(OCCCN2CC3CN(CCNS(=O)(=O)Cc4ccc(C(F)(F)F)cc4)CC(C2)O3)cc1 | >5.5 |
| N#Cc1ccc(S(=O)(=O)NCCN2CC3CN(CCCOc4cc(F)ccc4F)CC(C2)O3)cc1 | >5.5 |
| CS(=O)(=O)NCCN1CC2CN(CCOc3ccc(C#N)cc3)CC(C1)O2 | >5.5 |
| Cc1noc(C)c1CN1CC2CN(CCNS(=O)(=O)c3ccc(C#N)cc3)CC(C1)O2 | >5.5 |
| N#Cc1ccc(OCCCN2CC3CN(CCNS(=O)(=O)c4ccc(F)cc4)CC(C2)O3)cc1 | >5.5 |
| N#Cc1ccc(OCCCN2CC3CN(CCNS(=O)(=O)c4cccc(F)c4)CC(C2)O3)cc1 | >5.5 |

| SMILES | D10 [mg/kg] |
| --- | --- |
| N#Cc1ccc(OCCN2CC3CN(CCNS(=O)(=O)Cc4ccccc4)CC(C2)O3)cc1 | >5.5 |
| Cc1noc(C)c1CN1CC2CN(CCS(=O)(=O)NCc3ccc(C#N)cc3)CC(C1)O2 | >5.5 |
| N#Cc1ccc(S(=O)(=O)NCCN2CC3CN(CCOc4ccc(F)cc4)CC(C2)O3)cc1 | >5.5 |
| CN(CCN1CC2CN(Cc3ccc(C#N)cc3F)CC(C1)O2)S(=O)(=O)c1ccc(C#N)cc1 | >5.5 |
| N#Cc1ccc(OCCN2CC3CN(CCCNS(=O)(=O)c4ccccc4)CC(C2)O3)cc1 | >5.5 |
| Cc1[nH]c2ccccc2c1CN1CC2CN(CCNS(=O)(=O)c3ccc(C#N)cc3)CC(C1)O2 | >5.5 |
| N#Cc1ccc(OCCN2CC3CN(CCNS(=O)(=O)c4cccc(C#N)c4)CC(C2)O3)cc1 | >5.5 |
| N#Cc1ccc(CCN2CC3CN(CCNS(=O)(=O)c4ccc(F)cc4)CC(C2)O3)cc1 | >5.5 |
| O=S(=O)(NCCN1CC2CN(CCc3ccc(F)cc3)CC(C1)O2)c1ccc(F)cc1 | >5.5 |
| N#Cc1ccc(OCCN2CC3CN(CCNS(=O)(=O)c4ccc(C#N)cc4)CC(C2)O3)cc1 | >5.5 |
| N#Cc1ccc(OCCN2CC3CN(CCNS(=O)(=O)Cc4ccc(C(F)(F)F)cc4)CC(C2)O3)cc1 | >5.5 |
| N#Cc1ccc(OCCN2CC3CN(CCNS(=O)(=O)Cc4ccccc4)CC(C2)O3)c(F)c1 | >5.5 |
| N#Cc1ccc(OCCCN2CC3CN(CCNS(=O)(=O)c4ccccc4OC(F)(F)F)CC(C2)O3)cc1 | >5.5 |
| N#Cc1ccc(S(=O)(=O)NCCN2CC3CN(Cc4c[nH]c5ccc(F)cc45)CC(C2)O3)cc1 | >5.5 |
| N#Cc1ccc(S(=O)(=O)NCCN2CC3CN(Cc4ccc(C#N)cc4F)CC(C2)O3)cc1 | >5.5 |
| CN(CCN1CC2CN(Cc3ccccc3)CC(C1)O2)S(=O)(=O)c1ccc(C#N)cc1 | >5.5 |
| N#Cc1ccc(S(=O)(=O)NCCCN2CC3CN(CCCOc4ccc(F)cc4)CC(C2)O3)cc1 | >5.5 |
| N#Cc1ccc(S(=O)(=O)NCCN2CC3CN(CCc4cccc(F)c4)CC(C2)O3)cc1 | >5.5 |
| Cc1noc(C)c1S(=O)(=O)NCCCN1CC2CN(CCCOc3ccc(C#N)cc3)CC(C1)O2 | >5.5 |
| CN(CCN1CC2CN(Cc3ccc(F)cc3)CC(C1)O2)S(=O)(=O)c1ccc(C#N)cc1 | >5.5 |
| COc1ccc(S(=O)(=O)NCCN2CC3CN(CCCOc4ccc(C#N)cc4)CC(C2)O3)cc1 | >5.5 |
| CCCCS(=O)(=O)NCCN1CC2CN(CCCOc3ccc(C#N)cc3)CC(C1)O2 | >5.5 |
| N#Cc1ccc(OCCN2CC3CN(CCNS(=O)(=O)c4ccccc4F)CC(C2)O3)cc1 | >5.5 |
| N#Cc1ccc(S(=O)(=O)NCCCN2CC3CN(CCc4ccc(F)cc4)CC(C2)O3)cc1 | >5.5 |
| N#Cc1ccc(OCCN2CC3CN(CCNS(=O)(=O)c4ccc5c(c4)CCO5)CC(C2)O3)cc1 | >5.5 |
| N#Cc1ccc(OCCCN2CC3CN(CCNS(=O)(=O)c4cccc(C#N)c4)CC(C2)O3)cc1 | >5.5 |
| N#Cc1ccc(OCCCN2CC3CN(CCNS(=O)(=O)c4ccccc4)CC(C2)O3)cc1 | >5.5 |
